Consider seven compounds from BindingDB's records for doi:10.7270/Q2CJ8BXT (Burnham Center For Chemical Genomics, 2010).

The structures appear in SMILES notation.

For this experiment, the target named is T1, Type-1 angiotensin II receptor (Homo sapiens, UniProt P30556).
T1 sequence (P30556 whole entry): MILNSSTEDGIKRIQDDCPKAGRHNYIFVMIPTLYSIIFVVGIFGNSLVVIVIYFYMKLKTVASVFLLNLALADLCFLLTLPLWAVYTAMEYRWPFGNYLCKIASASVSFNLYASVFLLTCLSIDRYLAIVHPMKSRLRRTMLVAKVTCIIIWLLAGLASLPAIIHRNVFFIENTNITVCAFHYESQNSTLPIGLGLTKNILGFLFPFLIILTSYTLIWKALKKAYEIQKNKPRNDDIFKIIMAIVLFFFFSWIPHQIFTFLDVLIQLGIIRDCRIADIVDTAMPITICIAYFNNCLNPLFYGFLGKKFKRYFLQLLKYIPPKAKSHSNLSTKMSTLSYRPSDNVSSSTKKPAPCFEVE
In words: antagonism of angiotensin II type 1 receptor – cell-based, uHTS hits, selectivity assay for APJ receptor antagonist project, dose response (AID 463214).
In general, IC50 refers to the midpoint of a concentration-inhibition curve. The low end stands for inhibition by little substance, the high end for a need for much substance. For `COc1ccc2c(c1)C(O)C(=O)[C@H](c1ccc(OC)c(Br)c1)O2` (some centres not stated), the IC50 came out at 34.6 µM. The same measure for `Cc1ncc(C=O)c(CNNc2ccc(C(F)(F)F)cn2)c1O`: 28.7 µM; for `CCOC(=O)C1C(C)=NC2=C(C(=O)CC(c3cccs3)C2)C1c1cccs1` (configuration not stated) [2-Methyl-5-oxo-4,7-di-thiophen-2-yl-1,4,5,6,7,8-hexahydro-quinoline-3-carboxylic acid ethyl ester]: 36 µM; for `Cc1[nH]n(C(N)=S)c(=O)c1N=Nc1ccc([N+](=O)[O-])cc1` [3-Methyl-4-(4-nitro-phenylazo)-5-oxo-4,5-dihydro-pyrazole-1-carbothioic acid amide]: 35.3 µM.

On to `COC(=O)c1[nH]nc(C(O)c2ccc(Cl)cc2)c1-c1ccc(OC)cc1` (configuration not stated) [MLS000702189], for which the midpoint of inhibition, the IC50, lay at 28.4 µM. The same measure for `O=C1C=CC([N+](=O)[O-])=CC1CN=Nc1ccc(Cl)nn1` (configuration not stated) [SMR000184399]: 3.63 µM; for `CCOC(=O)c1[nH]nc(C(O)c2ccc(Cl)cc2)c1-c1ccccc1` (configuration not stated) [SMR000271792]: 39.9 µM.
